{
  "source": "patent US20210341371A1",
  "about": "“CELL SCANNING TECHNOLOGIES AND METHODS OF USE THEREOF” (priority 2018, published 2021)",
  "key": {"[1]": {"tested_on": "RBC membrane permeability", "test": "Cell scan of blood samples from patients/subjects (RBC membrane permeability parameters), including effect of medication taken", "assay_type": "in vivo, human", "details": "for effect of medication on the output of the cell scanning technologies: medication the subject has taken or is taking", "from_the_text": "The present disclosure encompasses the recognition that one or more medications that the subject has taken or is taking may affect the output of the cell scanning technologies described herein. The effect of a particular medication on the output of the cell scanning technologies may vary by medication, e.g., vary in magnitude and/or in length of effect, and in some cases, a particular medication may have no effect at all. […] Accordingly, in some embodiments, provided methods further comprise determining whether or not the subject has taken or is taking a particular medication. In some embodiments, if the subject has taken a medication known to have a particular effect on the output of the cell scanning technologies, then a determined RBC membrane permeability parameter should be compared to a suitable reference control parameter (e.g., a reference control parameter determined in the presence or absence of the particular medication). In some embodiments, if the subject has taken a medication known to have a particular effect on the output of the cell scanning technologies, then further diagnostic assessment is warranted.\n(§1) A sample of whole blood from a healthy volunteer was drawn into ACD anticoagulant. The unwashed sample was divided into aliquots and was analyzed using the Prior Shine Technology and/or the Provided Cell Scanning Technologies. The following outputs were obtained from the sample:\n“Pk0” coincided with the minimum absolute osmotic pressure (e.g., most hypotonic pressure) to which a cell can be subjected without loss of integrity. Pk0 can be identified by determining the right-most extent of the intact cell population in the cell-by-cell graph, i.e., the point of osmolality immediately preceding the point at which the cells ruptured. In FIG. 1a, this minimum pressure is the “peak” 106. As the osmolality of the surrounding solution was reduced, the red blood cell ruptures and forms a ghost cell, which releases its contents into the surrounding medium.\nUsing the technologies described herein, a cell-by-cell analysis was converted into a plot of percent change of cell volume vs. osmolality (“Cell Scan Plot”) by converting the individual peak voltage into a cell volume, then calculating a mean volume for each 100 cells, and plotting the means to generate the Cell Scan Plot. The percentage change of cell volume at each osmolality is calculated and compared to the mean cell volume of an isotonic cell (e.g., FIG. 1b). On such a plot, Pk0 (see 101) is the osmotic pressure at which the net water flow is zero (i.e., when a cell achieved its maximum volume, i.e., when it is a perfect sphere). As described herein, in some embodiments, Pk0 can be used as an indicator of an individual's health status.\nThe Fluid Flux Curve (FFC) was determined by taking the first order derivative (with respect to osmolality) of Cell Scan Plot (FIG. 1c). In an FFC, Pk0 occurred at the zero crossing (101), which was where the slope of the Cell Scan Plot changes from positive to negative. A positive value on the FFC represented a net flow of fluid into the cell, while negative rates represented a net flow of fluid out of the cell. In the FFC, the positive peak 102 and negative peak 103 corresponded to the maximum and minimum, respectively, on the FFC. As used herein, “Pymax” is the magnitude of fluid flux at the maximum, and “Pymin” is the magnitude of fluid flux at the minimum.\nTable 7 is organized by indication and reports the mean values for various parameters tested.\nA person was tested using cell scanning technologies described herein at a check-up 2 months after being diagnosed with grand mal epilepsy. The results were within normal limits (as they were on a prior visit), except for the Pk0 which had shifted approx. 10 mOsm/kg to 136 mOsm/kg. Such a change may be attributed to their prescribed medication, phenytoin."}, "[2]": {"tested_on": "RBC membrane permeability", "assay_type": "cell-based, human", "from_the_text": "The present disclosure also provides technologies for assessing (e.g., identifying and/or characterizing) agents and/or other compositions that modulate RBC membrane permeability (collectively, “RBC Permeability Modulating Agents”). Provided technologies may be useful for identifying RBC Permeability Modulating Agents. In some instances, a RBC Permeability Modulating Agent is expected to effect the health state of a subject exposed it (e.g., a beneficial or adverse effect). For example, provided methods allow for the evaluation of agents and/or compositions intended for use in humans (e.g., a drug candidate or prosthetic material).\nIn some embodiments, a sample is analyzed within a particular time period after being subjected to an agent or composition (e.g., within about 5 minutes, about 10 minutes, about 30 minutes, about 1 hour, about 2 hours, or about 5 hours). In some embodiments, a method further comprises evaluating dose response of an agent or composition (e.g., by subjecting each of a plurality of samples to varying concentrations of agent or composition).\nas §1\n“Pk0” coincided with the minimum absolute osmotic pressure (e.g., most hypotonic pressure) to which a cell can be subjected without loss of integrity. Pk0 can be identified by determining the right-most extent of the intact cell population in the cell-by-cell graph, i.e., the point of osmolality immediately preceding the point at which the cells ruptured. In FIG. 1a, this minimum pressure is the “peak” 106. […]\nUsing the technologies described herein, a cell-by-cell analysis was converted into a plot of percent change of cell volume vs. osmolality (“Cell Scan Plot”) by converting the individual peak voltage into a cell volume, then calculating a mean volume for each 100 cells, and plotting the means to generate the Cell Scan Plot. The percentage change of cell volume at each osmolality is calculated and compared to the mean cell volume of an isotonic cell (e.g., FIG. 1b). […]\nThe Fluid Flux Curve (FFC) was determined by taking the first order derivative (with respect to osmolality) of Cell Scan Plot (FIG. 1c). […]\nUsing the technologies provided herein, agents were tested for potential adverse in vivo effects prior to use in humans and/or animals. For example, a blood sample from a healthy volunteer was contacted with amphotericin B (0.5 μg/mL) and was analyzed using the provided cell scanning technologies. […]"}},
  "note": "Like-named read-outs stand apart in the source and are kept apart here.",
  "data": [
    {"smiles": "CC(=O)CC(c1ccccc1)c1c(O)c2ccccc2oc1=O", "note": "(stereo not drawn) [warfarin]", "values": [
      {"measurement": "P0 (TOTAL)", "setting": "[1]; mean value for patients with pulmonary embolus on warfarin, all patients (N=4)", "value": 149.4},
      {"measurement": "P0 (died)", "setting": "[1]; mean value for patients with pulmonary embolus on warfarin, subset who died (N=1)", "value": 157}
    ]},
    {"smiles": "CCC1(c2ccccc2)C(=O)NC(=O)NC1=O", "note": "[phenobarbitone]", "values": [
      {"measurement": "effect of medication on the output of the cell scanning technologies", "setting": "[1]", "value": "have an effect on the output"}
    ]},
    {"smiles": "C[C@@H]1[C@H](O)[C@@H](C)/C=C/C=C/C=C/C=C/C=C/C=C/C=C/[C@H](O[C@@H]2O[C@H](C)[C@@H](O)[C@H](N)[C@@H]2O)C[C@@H]2O[C@](O)(C[C@@H](O)C[C@@H](O)[C@H](O)CC[C@@H](O)C[C@@H](O)CC(=O)O[C@H]1C)C[C@H](O)[C@H]2C(=O)O", "note": "[amphotericin B]", "values": [
      {"measurement": "Pk0", "setting": "[2]; blood sample from a healthy volunteer contacted with amphotericin B 0.5 μg/mL, normal Pk0 approx. 142 mOsm/kg", "value": 85, "unit": "mOsm/kg"},
      {"measurement": "effect of medication on the output of the cell scanning technologies", "setting": "[1]", "value": "have an effect on the output"}
    ]},
    {"smiles": "OCCS", "note": "[beta-mercaptoethanol]", "values": [
      {"measurement": "effect of HgCl2 on RBC membrane permeability after addition of chelator", "setting": "[2]", "value": "the effect was reversed and RBC membrane permeability was restored"}
    ]},
    {"smiles": "O=C1NC(=O)C(c2ccccc2)(c2ccccc2)N1", "note": "[phenytoin]", "values": [
      {"measurement": "shift of Pk0 versus prior visit", "setting": "[1]; Patient X on prescribed phenytoin, change may be attributed to the medication", "value": "approx. 10 mOsm/kg"},
      {"measurement": "Pk0", "setting": "[1]; Patient X, person with grand mal epilepsy, 2 months after diagnosis, on prescribed phenytoin, change may be attributed to the medication", "value": 136, "unit": "mOsm/kg"},
      {"measurement": "effect of medication on the output of the cell scanning technologies", "setting": "[1]", "value": "have an effect on the output"}
    ]},
    {"smiles": "CC(C)(S)[C@@H](N)C(=O)O", "note": "[penicillamine]", "values": [
      {"measurement": "effect of medication on the output of the cell scanning technologies", "setting": "[1]", "value": "have an effect on the output"}
    ]},
    {"smiles": "[Cl][Hg][Cl]", "note": "[HgCl2]", "values": [
      {"measurement": "flow of water across the membrane", "setting": "[2]; unwashed whole blood from a healthy volunteer treated with 65 μM HgCl2", "value": "no flow of water across the membrane was detected"},
      {"measurement": "RBC membrane permeability", "setting": "[2]; unwashed whole blood from a healthy volunteer treated with 65 μM HgCl2, monitored over time", "value": "essentially eliminated"}
    ]}
  ]
}
